The NIST ThermoML archive (doi:10.1016/j.jct.2018.11.020)

Columns and labels:
[1] = 101.33 kPa, Liquid; for viscosity: Concentric cylinders viscometry; for mass density: Vibrating tube method
[2] = refractive index (Na D-line) (dimensionless); conditions: 101.33 kPa, Liquid, Standard Abbe refractometry

Cc1ccccc1C [1,2-dimethylbenzene]
Conditions | mass density, [1] [kg/m3] | refractive index, [2] | viscosity, [1] [mPa·s]
288.15 K | 883.91 | 1.50706 | 0.869
293.15 K | 879.72 | 1.5044 | 0.8175
298.15 K | 875.51 | 1.50173 | 0.7661
303.15 K | 871.3 | 1.49906 | 0.722
308.15 K | 867.07 | 1.49644 | 0.6809
313.15 K | 862.83 | 1.49383 | 0.6437
318.15 K | 858.57 | 1.49124 | 0.608
323.15 K | 854.3 | 1.48869 | 0.5757
328.15 K | 850.01 | 1.48604 | 0.5458
333.15 K | 845.71 | 1.48345 | 0.5221

Cc1cccc(C)c1 [1,3-dimethylbenzene]
Conditions | mass density, [1] [kg/m3] | refractive index, [2] | viscosity, [1] [mPa·s]
288.15 K | 868.56 | 1.49868 | 0.6601
293.15 K | 864.27 | 1.49604 | 0.6322
298.15 K | 859.98 | 1.49339 | 0.5969
303.15 K | 855.68 | 1.49074 | 0.5674
308.15 K | 851.36 | 1.4881 | 0.5396
313.15 K | 847.03 | 1.48545 | 0.5112
318.15 K | 842.69 | 1.4828 | 0.4888
323.15 K | 838.33 | 1.48017 | 0.4657
328.15 K | 833.95 | 1.47757 | 0.4439
333.15 K | 829.56 | 1.47489 | 0.4273

Cc1ccc(C)cc1 [1,4-dimethylbenzene]
Conditions | mass density, [1] [kg/m3] | refractive index, [2] | viscosity, [1] [mPa·s]
288.15 K | 865.31 | 1.4977 | 0.6862
293.15 K | 860.97 | 1.49493 | 0.6515
298.15 K | 856.63 | 1.49221 | 0.6168
303.15 K | 852.27 | 1.48939 | 0.5848
308.15 K | 847.91 | 1.48658 | 0.5548
313.15 K | 843.53 | 1.48391 | 0.5247
318.15 K | 839.14 | 1.48126 | 0.5001
323.15 K | 834.74 | 1.47853 | 0.4753
328.15 K | 830.32 | 1.47608 | 0.4521
333.15 K | 825.88 | 1.47328 | 0.4342

Cc1ccccc1 [toluene]
Conditions | mass density, [1] [kg/m3] | refractive index, [2] | viscosity, [1] [mPa·s]
288.15 K | 871.5 | 1.49921 | 0.6284
293.15 K | 866.84 | 1.49631 | 0.5926
298.15 K | 862.18 | 1.49338 | 0.5698
303.15 K | 857.51 | 1.49042 | 0.541
308.15 K | 852.83 | 1.48751 | 0.514
313.15 K | 848.15 | 1.48461 | 0.4854
318.15 K | 843.44 | 1.48171 | 0.4646
323.15 K | 838.73 | 1.47889 | 0.4421
328.15 K | 834 | 1.47596 | 0.4209
333.15 K | 829.25 | 1.47305 | 0.4035
